For assay [1], the system named is fluoroquinolone-resistant S. aureus ATCC 700699. Briefly: Minimum inhibitory concentration (MIC) assay, broth microdilution, MRSA. Type of assay: cell-based. Particulars: Staphylococcus aureus; fluoroquinolone-resistant S. aureus ATCC 700699; Table I; read-out: MRSA MIC. The method in brief:
(§1)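 NCCLS broth microdilution in Mueller-Hinton II broth, two-fold dilutions giving 0.125–128 μg/mL final, inoculum ~1×10^6 cfu/mL. Plates incubated in ambient air, 37 °C, 18–24 h; MIC taken as lowest concentration preventing visible growth.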
On the technique in general: Broth dilution looks for growth in wells or tubes with falling amounts of substance.

The test system of assay [2] is S. aureus ATCC 29213. In words: Minimum inhibitory concentration (MIC) assay, broth microdilution, MSSA. It counts as cell-based. Particulars: Staphylococcus aureus, Table I. The method in brief:
as §1

Structures are written as SMILES. Values after ≈ are worked out from the molar mass of the structure shown.

Results on seven compounds are retold here after patent publication US8173636B2, “Hydroxylthienoquinolones and related compounds as anti-infective agents” (Achillion Pharmaceuticals, Inc., priority 2009, dated 2012).

Turning to `COc1c(N2CC[C@@H]([C@H](C)N(C)C)C2)c(F)cc2c(=O)c3c(O)c(C#N)sc3n(C3CC3)c12` [Cmp 33, 9-cyclopropyl-7-((R)-3-((S)-1-(dimethylamino)ethyl)pyrrolidin-1-yl)-6-fluoro-3-hydroxyl-8-methoxy-4-oxo-4,9-dihydrothieno [2,3-b]quinoline-2-carbonitrile], the MIC was found to be 0.5 µg/mL (≈ 1.06 µM) in assay [1] and 0.06 µg/mL (≈ 0.128 µM) in assay [2].
The like results for `COc1c(N2CCC(C(N)=O)CC2)c(F)cc2c(=O)c3c(n(C4CC4)c12)SC(C#N)C3=O` (centres unmarked) [Cmp 45, 1-(2-cyano-9-cyclopropyl-6-fluoro-8-methoxy-3,4-dioxo-2,3,4,9-tetrahydrothieno[2,3-b]quinolin-7-yl)piperidine-4-carboxamide] were, in that order, 0.5 µg/mL (≈ 1.1 µM) and 0.03 µg/mL (≈ 0.0657 µM).
Take `COc1c(N2CCNCC2)c(F)cc2c(=O)c3c(O)csc3n(C3CC3)c12` [Cmp 8, 9-cyclopropyl-6-fluoro-3-hydroxyl-8-methoxy-7-(piperazin-1-yl)thieno[2,3-b]quinolin-4(9H)-one]: the MIC in assay [1] is greater than 64 µg/mL; in assay [2], 32 µg/mL (≈ 82.2 µM).
The like results for `C[C@H]1COc2c(N3CCNCC3)c(F)cc3c(=O)c4c(n1c23)SC(C#N)C4=O` (stereo partly drawn) [Cmp 47, (1S)-5-fluoro-1-methyl-7,8-dioxo-4-(piperazin-1-yl)-2,7,8,9-tetrahydro-1H-[1,4]oxazino[2,3,4-ij]thieno[2,3-b] quinoline-9-carbonitrile] were, in that order, 4 µg/mL (≈ 9.99 µM) and 1 µg/mL (≈ 2.5 µM).
As for `COc1c(N2CC[C@@H]([C@H](C)N)C2)c(F)cc2c(=O)c3c(O)c(C#N)sc3n(C3CC3)c12` [Cmp 11, 7-((R)-3-((S)-1-aminoethyl)pyrrolidin-1-yl)-9-cyclopropyl-6-fluoro-3-hydroxyl-8-methoxy-4-oxo-4,9-dihydrothieno[2,3-b] quinoline-2-carbonitrile], the figures for the MIC in assay [1] and in assay [2] were 0.094 µg/mL (≈ 0.212 µM) and 0.02 µg/mL (≈ 0.0452 µM), respectively.
The corresponding values for `COc1c(N2CCNCC2)c(F)cc2c(=O)c3c(O)c(S(=O)(=O)c4ccccc4)sc3n(C3CC3)c12` [Cmp 14, 9-cyclopropyl-6-fluoro-3-hydroxyl-8-methoxy-2-(phenylsulfonyl)-methoxy-2-7-(piperazin-1-yl)thieno[2,3-b]quinolin-4(9H)-one] are 16 µg/mL (≈ 30.2 µM) and 1 µg/mL (≈ 1.89 µM).
The corresponding values for `COc1c(N2CC[C@@H](C(C)(C)N)C2)c(F)cc2c(=O)c3c(O)csc3n(C3CC3)c12` [Cmp 6, (R)-7-(3-(2-aminopropan-2-yl)pyrrolidin-1-yl)-9-cyclopropyl-6-fluoro-3-hydroxyl-8-methoxythieno[2,3-b]quinolin-4(9H)-one] are 32 µg/mL (≈ 74.2 µM) and 2 µg/mL (≈ 4.63 µM).

As usually defined, the MIC is the least concentration at which growth counts as inhibited.
